Test results as given in ChEMBL document CHEMBL1134140, “Design, synthesis, and biological evaluation of a series of simple and novel potential antimalarial compounds” (Bioorg Med Chem Lett, 2001).

What was measured:
[1] = The toxicity was evaluated against KB cells using podophyllotoxin (ED50 0.2 nM) as a standard; type: functional; settings: Homo sapiens, read-out: ED50 (the source's name)
[2] = system: Trypanosoma cruzi; test: (§1) In vitro Trypanosoma cruzi (TC); type: functional; settings: read-out: ED50 (the source's name)
[3] = system: Plasmodium falciparum; test: In vitro inhibitory activity against Plasmodium falciparum; type: functional, organism-based
[4] = The toxicity was evaluated against KB cells; type: functional; settings: Homo sapiens, read-out: ED50 (the source's name)
[5] = system: Trypanosoma cruzi; test: as §1; type: functional, organism-based

Structure (SMILES)	EC50 [1]	EC50 [2]	IC50 [3]	EC50 [4]	IC50 [5]
COc1cc2c(c(OC(=O)COC(C)=O)c1OC)C(=O)[C@]1(OC)C=C[C@H]2N(c2ccccc2)O1	128 µM	> 63.9 µM	3.2 µM	–	–
COc1cc2c(c(OC(=O)CN3C(=O)c4ccccc4C3=O)c1OC)C(=O)[C@]1(OC)C=C[C@H]2N(c2ccccc2)O1	89.8 µM	11.9 µM	6.1 µM	–	–
COc1cc2c(c(OC(=O)c3ccc(F)cc3)c1OC)C(=O)[C@]1(OC)C=C[C@H]2N(c2ccccc2)O1	6.5 µM	9.2 µM	7.5 µM	–	–
COc1cc([C@@H]2c3cc4c(cc3[C@H](O)[C@H]3COC(=O)[C@H]23)OCO4)cc(OC)c1OC [PODOFILOX]	–	–	–	0.0002 µM	–
COc1cc2c(c(OC(=O)c3ccc(Cl)cc3)c1OC)C(=O)[C@]1(OC)C=C[C@H]2N(c2ccccc2)O1	29.1 µM	> 59 µM	> 59 µM	–	–
O=C(Cn1ccnc1[N+](=O)[O-])NCc1ccccc1 [BENZNIDAZOLE]	–	7.1 µM	–	–	–
COc1cc2c(c(OC(=O)c3ccccc3F)c1OC)C(=O)[C@]1(OC)C=C[C@H]2N(c2ccccc2)O1	7.7 µM	> 61 µM	6.3 µM	–	–
COc1cc2c(c(OC(C)=O)c1OC)C(=O)[C@]1(OC)C=C[C@H]2N(c2ccccc2)O1	6.3 µM	–	5.3 µM	–	23.8 µM
COc1cc2c(c(O)c1OC)C(=O)[C@]1(OC)C=C[C@H]2N(c2ccccc2)O1	< 0.8 µM	4.3 µM	5.4 µM	–	–
CCC(=O)Oc1c(OC)c(OC)cc2c1C(=O)[C@]1(OC)C=C[C@H]2N(c2ccccc2)O1	< 0.7 µM	–	6.6 µM	–	> 70.5 µM
COc1ccc(C(=O)Oc2c(OC)c(OC)cc3c2C(=O)[C@]2(OC)C=C[C@H]3N(c3ccccc3)O2)cc1	13.3 µM	> 59.6 µM	6.6 µM	–	–
COc1cc2c(c(OC)c1OC)C(=O)[C@]1(OC)C=C[C@H]2N(c2ccccc2)O1	< 0.8 µM	65.3 µM	8.9 µM	–	–
COc1cc2c(c(OC(=O)c3ccccc3)c1OC)C(=O)[C@]1(OC)C=C[C@H]2N(c2ccccc2)O1	11.8 µM	> 63.4 µM	3.4 µM	–	–
CCCC(=O)Oc1c(OC)c(OC)cc2c1C(=O)[C@]1(OC)C=C[C@H]2N(c2ccccc2)O1	3.2 µM	> 68.3 µM	3.9 µM	–	–
